Source: US6303596A, “Use of taurolidine for treatment of leukemias” (priority 2000, dated 2001)

Legend:
Type in all cases: cell-based, human
[1] = system: tissue factor (TF); test: LPS-induced tissue factor (TF) expression in PBMC, ELISA
Protocol: FIG. 2A represents MM6 cells; FIG. 2B represents PBMC. The cells were induced with LPS (hatched bars: 100 ng/ml LPS in RPMI supplemented with 10% BCS (RPMI+10% BCS); solid bars: 10 ng/ml in AIM-V+0.01% BCS) in the presence of varying concentrations of taurolidine,or with a dilution of the vehicle equivalent to that given to cells receiving 100 μg/ml taurolidine. After four hours, cells were collected and lysates were prepared for TF ELISA. Data are expressed as percent of TF antigen measured in cells treated with LPS alone (no taurolidine or vehicle). Experiments were performed with duplicate samples and were repeated at least three times. Values shown are mean±SEM of all experiments.
For induction of TF or TNFα expression, MM6 cells or PBMC were cultured either in RPMI supplemented with 10% BCS or in AIM-V+0.01% BCS, and stimulated by adding LPS to final concentrations of 10 to 100 ng/ml. […] Except as noted, taurolidine and LPS were added to the cell cultures simultaneously. For TF determination, cells and culture media together were treated by adding Triton X-100 (1% final) and EDTA (7 mmol/L final), and the resulting lysates assayed by ELISA. […] For TNFα determination, cells were removed by centrifugation for 5 min at 250×g, and the supernatants were assayed by ELISA.

[2] = system: HL-60; test: growth rate after taurolidine treatment, HL-60
Protocol: (§1) FIGS. 7A and 7B depict cell viability and growth rates for HL-60 cell line following taurolidine treatment, in terms of % trypan blue negative cells and % cell number, respectively. Cells were treated with various concentrations of taurolidine for 4 hours in AIM-V+0.01% BCS. After aliquots were collected for LDH assay, the remainder of the culture was rinsed in HBSS and resuspended in RPMI+10% BCS without taurolidine. Counts of trypan blue-negative cells (FIG. 7A), and total cell number (FIG. 7B), were recorded daily thereafter (with the measurement at Day 1 being made immediately after the 4 hour taurolidine treatment). Conditions were: no treatment (open circles); 25 μg/ml taurolidine (closed circles); 50 μg/ml taurolidine (open squares); 100 μg/ml taurolidine (closed squares); and vehicle alone (closed triangles). Doubling times were determined under each condition, and expressed as a percentage of the rate of doubling of untreated cells. These values are located to the right of the growth curves in (FIG. 7B). Cells were subcultured when they reached a concentration of 6×10^5 cells/ml. Data are mean±SEM of three experiments.
In these experiments, integrity of cell membranes following taurolidine treatment was assessed by exclusion of trypan blue and by measuring the release of LDH in MM6, K-562, HL-60, and REH cells. Since BCS contains significant amounts of LDH, these experiments were conducted on cells cultured in AIM-V+0.01% BCS. […] A parallel aliquot of cells was lysed by three cycles of freeze/thaw and the quantity of LDH released was taken to be 100%. […]
(§2) HL-60 cells treated with 50 μl taurolidine. In these samples, LDH present in the culture medium was 8.3±2.3% of that released by completely lysed cells, compared with 2.3±0.8% measured in control cultures. […] After 4 hour treatment, cells were rinsed and returned to growth medium and monitored for viability and growth over the following 3 days. […]
^b Growth rate was measured over three days following treatment.

[3] = system: GM5387 (fibroblasts); test: growth rate (proliferation) after taurolidine treatment, GM5387; conditions: GM5387, 50 and 100 μg/ml taurolidine
Protocol: as §1, with “11A” for “7A”, “11B” for “7B”, “GM5387” for “HL-60”, “11A),” for “7A),”, “11B),” for “7B),”, “11B). […]” for “7B). Cells were subcultured when they reached a concentration of 6×10^5 cells/ml. Data are mean±SEM of three experiments.”
as §2

O=S1(=O)CCN(CN2CCS(=O)(=O)NC2)CN1 [taurolidine, 4,4'-methylenebis(perhydro-1,2,4-thiadiazin 1,1-dioxide)]
inhibition of LPS-induced TF expression ([1]; PBMC, taurolidine 75 μg/ml, 4 h): complete inhibition of TF expression | induction of TF in response to LPS (summary) ([1]; peripheral blood monocytes or cultured MM6 cells): strongly inhibited the induction of TF | sensitivity of cell growth among cell lines ([2]; HL-60): most inhibited | activity at 50 µg/mL ([2]; Homo sapiens, 72 h, HL-60, 50 μg/ml for 4 h, growth over three days, read-out: growth rate (% of control)): 0% | activity at 100 µg/mL ([2]; Homo sapiens, 72 h, HL-60, 100 μg/ml for 4 h, growth over three days, read-out: growth rate (% of control)): 3% | proliferation after treatment [3]: inhibited proliferation
